Molecular target: MDM2 (Homo sapiens, UniProt Q00987)
Experiment: MDM2 binding screen of Libraries 3 and 4: displacement of fluorescent probe F-M8 at 750 nM macrocycle
Details: Panel b, Library 3: 63 scaffolds combinatorially acylated with 15 carboxylic acids at 30 picomole scale; displacement of fluorescent peptide probe; macrocycle 750 nM
In short: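 Cyclic peptide scaffolds were acylated in DMSO with carboxylic acids (20 equiv.), HBTU and DABCO for 6 h at room temperature. Reactions were quenched overnight in 100 mM Tris-Cl pH 7.4, 0.01% Tween20. The fluorescein conjugate was also competed with nutlin-3a.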

Sequence of MDM2 (Q00987 whole entry): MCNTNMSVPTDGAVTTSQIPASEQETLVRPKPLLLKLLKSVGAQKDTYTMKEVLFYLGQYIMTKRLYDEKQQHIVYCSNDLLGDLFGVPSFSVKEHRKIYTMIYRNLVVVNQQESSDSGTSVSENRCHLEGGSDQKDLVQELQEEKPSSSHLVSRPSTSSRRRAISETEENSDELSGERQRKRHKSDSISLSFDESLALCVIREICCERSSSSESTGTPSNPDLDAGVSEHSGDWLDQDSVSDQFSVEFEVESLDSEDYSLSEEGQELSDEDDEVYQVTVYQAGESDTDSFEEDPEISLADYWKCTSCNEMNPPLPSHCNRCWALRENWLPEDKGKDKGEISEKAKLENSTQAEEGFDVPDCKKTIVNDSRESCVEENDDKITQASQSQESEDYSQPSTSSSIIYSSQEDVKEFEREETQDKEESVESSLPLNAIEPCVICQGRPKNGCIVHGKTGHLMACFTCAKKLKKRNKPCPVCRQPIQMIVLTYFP

Row | fraction of fluorescent probe displaced | SMILES
1 | -0.00533 | Cn1cc(C[C@@H]2NC(=O)CN(CCNC(=O)c3cccc(Oc4ccccc4)c3)C(=O)[C@@H]3CN(CCO3)C(=O)CCSSCCNC2=O)c2ccccc21 [X-Cop-N-Aeg-Me-Trp + Acid 111]
2 | 0.028 | Cn1cc(C[C@@H]2NC(=O)CN(CCNC(=O)/C=C/c3ccc4ccccc4c3)C(=O)[C@@H]3CN(CCO3)C(=O)CCSSCCNC2=O)c2ccccc21 [X-Cop-N-Aeg-Me-Trp + Acid 112]
3 | -0.012 | Cn1cc(C[C@@H]2NC(=O)CN(CCNC(=O)CCS(=O)(=O)c3ccccc3)C(=O)[C@@H]3CN(CCO3)C(=O)CCSSCCNC2=O)c2ccccc21 [X-Cop-N-Aeg-Me-Trp + Acid 114]
4 | -0.025 | CN1C(=O)CN(CCNC(=O)c2ccc(Cl)s2)C(=O)[C@@H]2CN(CCO2)C(=O)CCSSCCNC(=O)[C@@H]1Cc1c[nH]c2ccccc12 [X-Cop-N-Aeg-NMe-Trp + Acid 14]
5 | 0.021 | CN1C(=O)CN(CCNC(=O)c2ccc(Cl)cc2)C(=O)C2CN(CCO2)C(=O)CCSSCCNC(=O)C1Cc1c[nH]c2ccccc12 (stereo not drawn) [X-Cop-N-Aeg-NMe-Trp + Acid 25]
6 | 0.015 | CN1C(=O)CN(CCNC(=O)/C=C/c2ccc3ccccc3c2)C(=O)[C@@H]2CN(CCO2)C(=O)CCSSCCNC(=O)[C@@H]1Cc1c[nH]c2ccccc12 [X-Cop-N-Aeg-NMe-Trp + Acid 112]
7 | 0.055 | O=C1CN(CCNC(=O)c2ccc(Cl)cc2)C(=O)C2CN(CCO2)C(=O)CCSSCCNC(=O)C(Cc2c[nH]c3ccccc23)N1 (stereo not drawn) [X-Cop-N-Aeg-Trp + Acid 25]
8 | 0.00455 | O=C1CN(CCNC(=O)c2ccc3ccccc3c2)C(=O)[C@@H]2CN(CCO2)C(=O)CCSSCCNC(=O)[C@H](Cc2c[nH]c3ccccc23)N1 [X-Cop-N-Aeg-Trp + Acid 107]
9 | 0.015 | O=C(/C=C/c1ccc(OCc2ccccc2)cc1)NCCN1CC(=O)N[C@@H](Cc2c[nH]c3ccccc23)C(=O)NCCSSCCC(=O)N2CCO[C@@H](C2)C1=O [X-Cop-N-Aeg-Trp + Acid 110]
10 | 0.028 | O=C(/C=C/c1ccc2ccccc2c1)NCCN1CC(=O)N[C@@H](Cc2c[nH]c3ccccc23)C(=O)NCCSSCCC(=O)N2CCO[C@@H](C2)C1=O [X-Cop-N-Aeg-Trp + Acid 112]
11 | -0.012 | O=C1CN(CCNC(=O)C2COc3ccccc3O2)C(=O)[C@@H]2CN(CCO2)C(=O)CCSSCCNC(=O)[C@H](Cc2c[nH]c3ccccc23)N1 (stereo partly drawn) [X-Cop-N-Aeg-Trp + Acid 115]
12 | -0.019 | O=C(NC[C@H]1NC(=O)[C@H]2CCCN(C2)C(=O)CCSSCCNC(=O)[C@H](Cc2cccc3ccccc23)NC1=O)c1ccc(Cl)s1 [X-Nip-D-Dap-1-NaI + Acid 14]
13 | 0.015 | O=C(NC[C@H]1NC(=O)[C@H]2CCCN(C2)C(=O)CCSSCCNC(=O)[C@H](Cc2cccc3ccccc23)NC1=O)c1ccc(Cl)cc1 [X-Nip-D-Dap-1-NaI + Acid 25]
14 | 0.00455 | O=C(NC[C@H]1NC(=O)[C@H]2CCCN(C2)C(=O)CCSSCCNC(=O)[C@H](Cc2cccc3ccccc23)NC1=O)c1ccc2ccccc2c1 [X-Nip-D-Dap-1-NaI + Acid 107]
15 | 0.021 | O=C(/C=C/c1ccc2ccccc2c1)NC[C@H]1NC(=O)[C@H]2CCCN(C2)C(=O)CCSSCCNC(=O)[C@H](Cc2cccc3ccccc23)NC1=O [X-Nip-D-Dap-1-NaI + Acid 112]
16 | 0.00133 | CC(Oc1cccc(Cl)c1)C(=O)NC[C@H]1NC(=O)[C@H]2CCCN(C2)C(=O)CCSSCCNC(=O)[C@H](Cc2cccc3ccccc23)NC1=O (stereo partly drawn) [X-Nip-D-Dap-1-NaI + Acid 113]
17 | -0.00533 | O=C(CCS(=O)(=O)c1ccccc1)NC[C@H]1NC(=O)[C@H]2CCCN(C2)C(=O)CCSSCCNC(=O)[C@H](Cc2cccc3ccccc23)NC1=O [X-Nip-D-Dap-1-NaI + Acid 114]
18 | 0.021 | O=C(NC[C@H]1NC(=O)[C@H]2CCCN(C2)C(=O)CCSSCCNC(=O)[C@H](Cc2cccc3ccccc23)NC1=O)C1COc2ccccc2O1 (stereo partly drawn) [X-Nip-D-Dap-1-NaI + Acid 115]
19 | 0.021 | O=C(/C=C/c1ccc(Cl)cc1)NC[C@H]1NC(=O)[C@H]2CCCN(C2)C(=O)CCSSCCNC(=O)[C@H](Cc2ccc3ccccc3c2)NC1=O [X-Nip-D-Dap-2-Nal + Acid 108]
20 | 0.008 | O=C(/C=C/c1ccc(OCc2ccccc2)cc1)NC[C@H]1NC(=O)[C@H]2CCCN(C2)C(=O)CCSSCCNC(=O)[C@H](Cc2ccc3ccccc3c2)NC1=O [X-Nip-D-Dap-2-Nal + Acid 110]
21 | 0.00133 | O=C(NC[C@H]1NC(=O)[C@H]2CCCN(C2)C(=O)CCSSCCNC(=O)[C@H](Cc2ccc3ccccc3c2)NC1=O)c1cccc(Oc2ccccc2)c1 [X-Nip-D-Dap-2-Nal + Acid 111]

Row | fraction of fluorescent probe displaced | SMILES
22 | 0.008 | O=C(/C=C/c1ccc2ccccc2c1)NC[C@H]1NC(=O)[C@H]2CCCN(C2)C(=O)CCSSCCNC(=O)[C@H](Cc2ccc3ccccc3c2)NC1=O [X-Nip-D-Dap-2-Nal + Acid 112]
23 | 0.048 | O=C(CCS(=O)(=O)c1ccccc1)NC[C@H]1NC(=O)[C@H]2CCCN(C2)C(=O)CCSSCCNC(=O)[C@H](Cc2ccc3ccccc3c2)NC1=O [X-Nip-D-Dap-2-Nal + Acid 114]
24 | 0.041 | O=C(NC[C@H]1NC(=O)[C@H]2CCCN(C2)C(=O)CCSSCCNC(=O)[C@H](Cc2c[nH]c3cc(Cl)ccc23)NC1=O)c1ccc(Cl)cc1 [X-Nip-D-Dap-Cl-Trp + Acid 25]
25 | 0.018 | O=C(/C=C/c1ccncc1)NC[C@H]1NC(=O)[C@H]2CCCN(C2)C(=O)CCSSCCNC(=O)[C@H](Cc2c[nH]c3cc(Cl)ccc23)NC1=O [X-Nip-D-Dap-Cl-Trp + Acid 106]
26 | 0.024 | O=C(NC[C@H]1NC(=O)[C@H]2CCCN(C2)C(=O)CCSSCCNC(=O)[C@H](Cc2c[nH]c3cc(Cl)ccc23)NC1=O)c1ccc2ccccc2c1 [X-Nip-D-Dap-Cl-Trp + Acid 107]
27 | 0.00133 | O=C(/C=C/c1ccc(Cl)cc1)NC[C@H]1NC(=O)[C@H]2CCCN(C2)C(=O)CCSSCCNC(=O)[C@H](Cc2c[nH]c3cc(Cl)ccc23)NC1=O [X-Nip-D-Dap-Cl-Trp + Acid 108]
28 | 0.008 | O=C(/C=C/c1ccc(OCc2ccccc2)cc1)NC[C@H]1NC(=O)[C@H]2CCCN(C2)C(=O)CCSSCCNC(=O)[C@H](Cc2c[nH]c3cc(Cl)ccc23)NC1=O [X-Nip-D-Dap-Cl-Trp + Acid 110]
29 | -0.00533 | O=C(/C=C/c1ccc2ccccc2c1)NC[C@H]1NC(=O)[C@H]2CCCN(C2)C(=O)CCSSCCNC(=O)[C@H](Cc2c[nH]c3cc(Cl)ccc23)NC1=O [X-Nip-D-Dap-Cl-Trp + Acid 112]
30 | -0.00533 | CC(Oc1cccc(Cl)c1)C(=O)NC[C@H]1NC(=O)[C@H]2CCCN(C2)C(=O)CCSSCCNC(=O)[C@H](Cc2c[nH]c3cc(Cl)ccc23)NC1=O (stereo partly drawn) [X-Nip-D-Dap-Cl-Trp + Acid 113]
31 | 0.015 | O=C(CCS(=O)(=O)c1ccccc1)NC[C@H]1NC(=O)[C@H]2CCCN(C2)C(=O)CCSSCCNC(=O)[C@H](Cc2c[nH]c3cc(Cl)ccc23)NC1=O [X-Nip-D-Dap-Cl-Trp + Acid 114]
32 | -0.012 | O=C(NC[C@H]1NC(=O)[C@H]2CCCN(C2)C(=O)CCSSCCNC(=O)[C@H](Cc2c[nH]c3cc(Cl)ccc23)NC1=O)C1COc2ccccc2O1 (stereo partly drawn) [X-Nip-D-Dap-Cl-Trp + Acid 115]
33 | -0.00533 | O=C(NC[C@H]1NC(=O)[C@H]2CCCN(C2)C(=O)CCSSCCNC(=O)[C@@H](Cc2c[nH]c3ccccc23)NC1=O)c1ccc(Cl)s1 [X-Nip-D-Dap-D-Trp + Acid 14]
34 | 0.00133 | O=C(NC[C@H]1NC(=O)[C@H]2CCCN(C2)C(=O)CCSSCCNC(=O)[C@@H](Cc2c[nH]c3ccccc23)NC1=O)c1ccc(Cl)cc1 [X-Nip-D-Dap-D-Trp + Acid 25]
35 | 0.050 | O=C(NC[C@H]1NC(=O)[C@H]2CCCN(C2)C(=O)CCSSCCNC(=O)[C@@H](Cc2c[nH]c3ccccc23)NC1=O)c1ccc2ccccc2c1 [X-Nip-D-Dap-D-Trp + Acid 107]
36 | -0.012 | O=C(/C=C/c1ccc(OCc2ccccc2)cc1)NC[C@H]1NC(=O)[C@H]2CCCN(C2)C(=O)CCSSCCNC(=O)[C@@H](Cc2c[nH]c3ccccc23)NC1=O [X-Nip-D-Dap-D-Trp + Acid 110]
37 | 0.075 | O=C(/C=C/c1ccc2ccccc2c1)NC[C@H]1NC(=O)[C@H]2CCCN(C2)C(=O)CCSSCCNC(=O)[C@@H](Cc2c[nH]c3ccccc23)NC1=O [X-Nip-D-Dap-D-Trp + Acid 112]
38 | 0.021 | O=C(CCS(=O)(=O)c1ccccc1)NC[C@H]1NC(=O)[C@H]2CCCN(C2)C(=O)CCSSCCNC(=O)[C@@H](Cc2c[nH]c3ccccc23)NC1=O [X-Nip-D-Dap-D-Trp + Acid 114]
39 | 0.008 | Cn1cc(C[C@@H]2NC(=O)[C@@H](CNC(=O)c3ccc(Cl)s3)NC(=O)[C@H]3CCCN(C3)C(=O)CCSSCCNC2=O)c2ccccc21 [X-Nip-D-Dap-Me-Trp + Acid 14]
40 | -0.00533 | Cn1cc(C[C@@H]2NC(=O)[C@@H](CNC(=O)c3ccc(Cl)cc3)NC(=O)[C@H]3CCCN(C3)C(=O)CCSSCCNC2=O)c2ccccc21 [X-Nip-D-Dap-Me-Trp + Acid 25]
41 | 0.015 | Cn1cc(C[C@@H]2NC(=O)[C@@H](CNC(=O)/C=C/c3ccc(Cl)cc3)NC(=O)[C@H]3CCCN(C3)C(=O)CCSSCCNC2=O)c2ccccc21 [X-Nip-D-Dap-Me-Trp + Acid 108]
42 | 0.008 | Cn1cc(C[C@@H]2NC(=O)[C@@H](CNC(=O)/C=C/c3ccc(OCc4ccccc4)cc3)NC(=O)[C@H]3CCCN(C3)C(=O)CCSSCCNC2=O)c2ccccc21 [X-Nip-D-Dap-Me-Trp + Acid 110]
